The results in this text go back to patent US8124764B2, “Fused heterocyclyc inhibitor compounds” (Gilead Sciences, Inc., priority 2008, dated 2012).

Molecules are shown by their SMILES.

One experiment has as its target HDAC 1 (Homo sapiens, UniProt Q13547). Kind of experiment: HDAC 1 inhibition assay with about 3 hours enzyme/compound preincubation (fluorophore/quencher peptide substrate). Type of experiment: biochemical. The conditions noted are these: 3-hour preincubation of enzyme with compound; read-out: HDAC 1 inhibitory activity (IC50 [μM]) (3-hour preincubation). As for the experimental part: HDAC inhibitory activity of the compound of Example 1 was measured by two types of assays in which HDAC 1 was used as a target molecule. The first assay was carried out without preincubation after addition of the enzyme. The test compound was suspended in and titrated in dmso. It was then spotted into a 384-well test plate. The enzyme, HDAC 1, was diluted in assay buffer containing 25 mM Tris-HCl (pH 8.0), 137 mM NaCl, 2.7 mM KCl, and 0.01% Tween-20 and added to the pre-spotted compound. The peptide substrate containing a fluorophore/quencher pair was diluted in the same assay buffer and added to the compound/enzyme mix initiating the reaction. The reaction incubated at room temperature for about 45 minutes. A concentrated developer solution was diluted in the assay buffer, and added to the reaction. The reaction was incubated at room temperature for about 15 minutes and relative fluorescence was read on an instrument reader.
The second assay is similar to the first assay described above, except that preincubation is carried out for about 3 hours after the enzyme is introduced. The test compound was suspended in, and titrated in DMSO. It was then spotted into a 384-well test plate. The enzyme, HDAC 1, was diluted in the same assay buffer as used in the previous assay and added to the pre-spotted compound. The enzyme/compound mix was incubated at room temperature for about 3 hours. The peptide substrate containing a fluorophore/quencher pair was diluted in the assay buffer and added to the compound/enzyme mix initiating the reaction. The reaction incubated at room temperature for 45 minutes. A concentrated developer solution was diluted in the assay buffer, and added to the reaction. The reaction was incubated at room temperature for about 15 minutes and relative fluorescence was read on an instrument reader.

For another experiment, the target named is CDK2 (Homo sapiens, UniProt P24941). Kind of experiment: CDK2 inhibition. Type of experiment: biochemical.

Sequence of HDAC 1 (Q13547 whole entry, species assumed): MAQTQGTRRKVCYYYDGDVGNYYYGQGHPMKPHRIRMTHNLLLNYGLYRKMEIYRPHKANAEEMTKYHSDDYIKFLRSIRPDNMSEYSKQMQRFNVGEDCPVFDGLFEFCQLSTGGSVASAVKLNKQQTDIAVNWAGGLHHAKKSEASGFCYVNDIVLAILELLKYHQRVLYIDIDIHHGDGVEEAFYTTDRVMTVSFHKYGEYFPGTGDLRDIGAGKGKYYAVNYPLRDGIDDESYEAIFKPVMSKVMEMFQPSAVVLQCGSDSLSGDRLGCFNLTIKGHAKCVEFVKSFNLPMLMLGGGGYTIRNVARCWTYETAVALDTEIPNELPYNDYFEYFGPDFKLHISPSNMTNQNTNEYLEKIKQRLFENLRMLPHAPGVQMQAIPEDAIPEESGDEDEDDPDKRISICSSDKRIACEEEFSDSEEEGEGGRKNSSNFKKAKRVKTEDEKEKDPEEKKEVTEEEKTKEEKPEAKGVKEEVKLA

Turning to `Cc1nc2ccccn2c1-c1ccnc(Nc2nnc(C(=O)NO)s2)c1` [Example 75, N-hydroxy-5-(4-(2-methylimidazo[1,2-a]pyridin-3-yl)pyridin-2-ylamino)-1,3,4-thiadiazole-2-carboxamide], on HDAC 1, the IC50 (in general, the midpoint of a concentration-inhibition curve) worked out at 0.669 µM.
Regarding `Cc1nc2cc(C(=O)N3CCN(C)CC3)ccn2c1-c1ccnc(Nc2ccc(C(=O)Nc3ccccc3N)cc2)n1` [Example 27, N-(2-Amino-phenyl)-4-{4-[2-methyl-7-(4-methyl-piperazine-1-carbonyl)-imidazo[1,2-a]pyridin-3-yl]-pyrimidin-2-ylamino}-benzamide], the IC50 stood at 4.64 µM against CDK2 and 0.374 µM at HDAC 1.
`Cc1nc2ccccn2c1-c1ccnc(Nc2cc(C(=O)Nc3ccccc3N)cs2)n1` [Example 59, N-(2-aminophenyl)-5-(4-(2-methylimidazo[1,2-a]pyridin-3-yl)pyrimidin-2-ylamino)thiophene-3-carboxamide]: the IC50 on CDK2 stood at 0.04 µM; on HDAC 1, 0.993 µM.
Taken in the same sequence, the figures for `Cc1nc2ccccn2c1-c1ccnc(Nc2ncc(C(=O)NO)s2)n1` [Example 65, N-hydroxy-2-(4-(2-methylimidazo[1,2-a]pyridin-3-yl)pyrimidin-2-ylamino)thiazole-5-carboxamide] were 1.86 µM and 0.109 µM.
As for `COc1ccc2nc(C)c(-c3ccnc(Nc4ccc(C(=O)NO)cc4)n3)n2c1` [Example 43, N-Hydroxy-4-[4-(6-methoxy-2-methyl-imidazo[1,2-a]pyridin-3-yl)-pyrimidin-2-ylamino]-benzamide], the results for the IC50 on CDK2 and on HDAC 1 were 0.08 µM and 0.14 µM, respectively.
The like results for `Cc1nc2ccccn2c1-c1ccnc(Nc2ccc(C(=O)Nc3ccccc3N)cc2)c1` [Example 54, N-(2-Amino-phenyl)-4-[4-(2-methyl-imidazo[1,2-a]pyridin-3-yl)-pyridin-2-ylamino]-benzamide] were, in that order, 13.1 µM and 0.053 µM.
For the compound `COCCOc1ccc2nc(C)c(-c3ccnc(Nc4ccc(C(=O)Nc5ccccc5N)cc4)n3)n2c1` [Example 41, N-(2-Amino-phenyl)-4-{4-[6-(2-methoxy-ethoxy)-2-methyl-imidazo[1,2-a]pyridin-3-yl]-pyrimidin-2-ylamino}-benzamide], the IC50 against CDK2 is 4.34 µM; at HDAC 1, 0.877 µM.
The like results for `Cc1nc2cc(N3CCOCC3)ccn2c1-c1ccnc(Nc2ccc(C(=O)Nc3ccccc3N)cc2)n1` [Example 23, N-(2-Amino-phenyl)-4-[4-(2-methyl-7-morpholin-4-yl-imidazo[1,2-a]pyridin-3-yl)-pyrimidin-2-ylamino]-benzamide] were, in that order, 0.67 µM and 5.29 µM.
`O=C(NO)c1ccc(Nc2nccc(-c3cnc4ccccn34)n2)cc1` [Example 5, N-Hydroxy-4-(4-imidazo[1,2-a]pyridin-3-yl-pyrimidin-2-ylamino)-benzamide]: the IC50 is 0.0393 µM at CDK2 and 0.02 µM at HDAC 1.
The like results for `COc1ccn2c(-c3ccnc(Nc4ccc(C(=O)Nc5ccccc5N)cc4)n3)c(C(F)(F)F)nc2c1` [Example 48, N-(2-Amino-phenyl)-4-[4-(7-methoxy-2-trifluoromethyl-imidazo[1,2-a]pyridin-3-yl)-pyrimidin-2-ylamino]-benzamide] were, in that order, 0.14 µM and 0.06 µM.
Take `COc1ccn2c(-c3ccnc(Nc4ccc(C(=O)NO)cn4)c3)c(C)nc2c1` [Example 77, N-hydroxy-6-(4-(7-methoxy-2-methylimidazo[1,2-a]pyridin-3-yl)pyridin-2-ylamino)nicotinamide]: the IC50 at HDAC 1 was 0.18 µM.
Same read-out and setting: the same measure for `Cc1nc2ccccn2c1-c1ccnc(Nc2cccc(C(=O)Nc3ccccc3N)c2)n1` [Example 4, N-(2-Amino-phenyl)-3-[4-(2-methyl-imidazo[1,2-a]pyridin-3-yl)-pyrimidin-2-ylamino]-benzamide]: above 50 µM; for `Cc1nc2ccccn2c1-c1ccnc(Nc2cnc(C(=O)NO)cn2)c1` [Example 76, N-hydroxy-5-(4-(2-methylimidazo[1,2-a]pyridin-3-yl)pyridin-2-ylamino)pyrazine-2-carboxamide]: 0.526 µM.
